Test results as given in patent publication US20070202548A1, “SCREENING ASSAY TO IDENTIFY INHIBITORS OF THE MURD ENZYME USING AN ACTIVATOR-I[…] ENZYME” (priority 2002, published 2007).

Tests used:
E. faecalis MurD [1] = molecular target: T1, E. faecalis MurD (Enterococcus faecalis, UniProt O07108, A218V/A300V/N165D/T307K); assay: stability of E. faecalis Mur D in DMSO; format: biochemical; settings: DMSO concentration up to 5%, FIG. 4
[2] = system: Staphylococcus aureus Mur D enzyme; assay: salt activation of S. aureus MurD; format: biochemical; settings: FIG. 2
E. faecalis MurD [3] = molecular target: T1, E. faecalis MurD; format: biochemical; settings: FIG. 1 / FIG. 3
E. coli enzyme (MurD) = E. coli enzyme (MurD) (Escherichia coli, UniProt P14900); settings: FIG. 3
Chain of E. coli enzyme (MurD) (P14900 whole entry): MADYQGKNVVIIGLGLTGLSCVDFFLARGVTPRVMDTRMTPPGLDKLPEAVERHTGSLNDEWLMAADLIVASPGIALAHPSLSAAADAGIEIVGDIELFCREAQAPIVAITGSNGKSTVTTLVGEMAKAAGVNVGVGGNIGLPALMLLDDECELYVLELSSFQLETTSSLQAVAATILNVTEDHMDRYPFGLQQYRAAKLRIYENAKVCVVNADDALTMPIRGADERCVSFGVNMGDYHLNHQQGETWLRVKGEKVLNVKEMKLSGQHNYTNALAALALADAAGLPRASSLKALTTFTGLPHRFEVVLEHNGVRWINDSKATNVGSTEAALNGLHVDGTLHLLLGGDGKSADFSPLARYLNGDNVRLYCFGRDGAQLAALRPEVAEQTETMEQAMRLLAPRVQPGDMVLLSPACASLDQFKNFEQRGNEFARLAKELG

T1 sequence (O07108 whole entry N165D/A218V/A300V/T307K): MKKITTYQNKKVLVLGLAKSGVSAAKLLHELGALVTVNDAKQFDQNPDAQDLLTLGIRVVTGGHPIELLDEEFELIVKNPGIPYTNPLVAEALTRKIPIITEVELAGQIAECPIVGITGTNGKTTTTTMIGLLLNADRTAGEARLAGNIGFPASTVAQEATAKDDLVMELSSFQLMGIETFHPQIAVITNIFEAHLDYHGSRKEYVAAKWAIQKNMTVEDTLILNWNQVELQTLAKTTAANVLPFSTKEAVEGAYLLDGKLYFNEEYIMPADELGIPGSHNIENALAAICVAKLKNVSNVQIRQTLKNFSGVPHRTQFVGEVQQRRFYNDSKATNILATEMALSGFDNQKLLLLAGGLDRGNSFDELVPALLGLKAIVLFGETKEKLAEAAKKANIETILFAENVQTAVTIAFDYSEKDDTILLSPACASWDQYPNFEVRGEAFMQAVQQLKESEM

Compound | activation of S. aureus Mur D enzyme by cations [2] | effect of salt on E. faecalis MurD enzyme activity (E. faecalis MurD [3]) | also measured
C[S+](C)[O-] [DMSO, dimethylsulfoxide] |  |  | effect of DMSO on E. faecalis MurD (E. faecalis MurD [1]): not affected
[K+] [K^+, potassium] | activated |  | 
N [NH4^+, ammonium] | activated |  | 
O=S(=O)(O)O [SO4-ions] |  | inhibitor | 
N.O=CO [ammonium formate] |  | independent | dependence of E. coli enzyme activity on presence of salt (E. coli enzyme (MurD)): dependent
